11 compounds from patent US10947196B2, “Beta adrenergic agonist and methods of using the same” (CURASEN THERAPEUTICS, INC., priority 2019, dated 2021) can be followed below.

Each structure is given as a SMILES string. Like-named read-outs stand apart in the source and are kept apart here.

Holding throughout (format): cell-based
Assay [1] deals with β2 adrenergic receptors in human astrocytoma cells (1321N1) (Homo sapiens (Human), UniProt P07550). Briefly: cAMP HTRF assay in human astrocytoma cells (1321N1). As to conditions: Endogenous receptor, 1321N1 cells. Here is the method: cAMP homogeneous time-resolved fluorescence (HTRF). Compound efficacy was determined using the cAMP Gs dynamic HTRF assay (Cisbio, catalog #62AM4PEC) largely following the manufacturer's instructions, also detailed below.
β2 adrenergic receptors in human astrocytoma cells (1321N1), sequence (P07550 whole entry): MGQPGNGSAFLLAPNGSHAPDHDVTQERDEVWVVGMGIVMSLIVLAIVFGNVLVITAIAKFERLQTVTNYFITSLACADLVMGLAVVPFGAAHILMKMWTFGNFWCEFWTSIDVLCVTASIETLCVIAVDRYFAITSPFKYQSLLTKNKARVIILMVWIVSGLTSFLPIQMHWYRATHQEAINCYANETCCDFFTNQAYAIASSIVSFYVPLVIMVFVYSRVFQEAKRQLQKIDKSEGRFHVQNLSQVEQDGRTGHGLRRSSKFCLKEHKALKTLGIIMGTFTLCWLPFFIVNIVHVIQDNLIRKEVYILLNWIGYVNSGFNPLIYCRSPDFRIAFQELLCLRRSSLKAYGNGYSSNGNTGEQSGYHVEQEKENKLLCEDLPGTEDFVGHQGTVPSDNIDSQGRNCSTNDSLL
Compound preparation. […] Standard serial dilution curves were 10-point, 5-fold dilutions starting from a highest concentration of 10 μM. […] Assay plates were centrifuged at 500×g for 10 seconds. Compounds and IBMX were prepared at 2× final dose to compensate for addition of cells.
Cell preparation. 1× stimulation buffer, washing PBS (Dulbecco's phosphate-buffered saline, −Mg −Ca; Caisson Labs, catalog #PBL01), assay PBS (Dulbecco's phosphate-buffered saline, +Mg, +Ca; Caisson Labs, catalog #PBL02) and Versene (0.02% EDTA disodium salt solution in PBS without calcium or magnesium; Caisson Labs, catalog #EDL01) were pre-warmed to 37° C. Cells expressing beta-adrenergic receptor were washed in washing PBS to remove growth medium and then released from the surface by incubating with Versene for 5-10 minutes at 37° C. Cells were harvested using assay PBS, counted manually by hemocytometer or by an automated cell counter, pelleted by centrifugation (200×g, 5 minutes) and resuspended in 37° C. 1× stimulation buffer to a final density of 1.5×10^6 cells/mL. 5 μL of the suspended cell solution (7500 cell total) were added to all wells of the 384 well assay plate, the assay plate was covered with an Axygen® plate seal (Corning PCR-SP) and incubated in a humidified 37° C. environment supplemented with 5% CO2 for 30 minutes.
HTRF reagent addition, reading and data analysis. After 30 minutes of cell stimulation with test compound, the assay plates were centrifuged at 500×g for 10 seconds, and incubation was stopped with the addition of 5 μL cAMP-D2 acceptor, diluted 1:21 in detection and lysis buffer 2 (Cisbio 62CL2FDF) was added to all cells. Subsequently, 5 μL Anti-cAMP-Eu Donor, diluted 1:21 in detection and lysis buffer 2, was added to cells. Plates were sealed and reactions gently ‘vortexed’ at 900 rpm on a Heidolph Titramax 1000 for at least 30 minutes at room temperature. Plates were centrifuged again at 500×g for 10 seconds, and HTRF was measured using a Tecan Spark plate reader at 50 flashes per well. […] Potency estimates (EC50) were derived from the four-parameter nonlinear regression of the concentration-effect curve and an estimate of relative efficacy was determined by comparing the magnitude of the test compound HTRF signal window (min−max dose) with the signal window of the full agonist control, isoproterenol.
For orientation: TR-FRET usually uses a lanthanide donor and a delayed reading to cut background.

A further assay has as its target B3-AR (Homo sapiens (Human), UniProt P13945). Briefly: cAMP potency assay, B3-AR expressing CHO-K1 cells.
The target in another assay is β1-adrenergic receptor (Homo sapiens (Human), UniProt P08588). Briefly: cAMP Gs dynamic HTRF assay, β1 expressing CHO cells. The following applies: B1-AR. The procedure, abridged: (§1)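 Intracellular cAMP quantified by Eu-donor/d2-acceptor HTRF after 30 min compound exposure at 37° C in stimulation buffer with IBMX. Concentrations ran 10 μM top, 5-fold steps, 10 points. Cell lines: 1321N1 astrocytoma and CHO expressing β1 or β2; EC50 via four-parameter fit, relative efficacy against isoproterenol.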
β1-adrenergic receptor, sequence (P08588 whole entry, species assumed): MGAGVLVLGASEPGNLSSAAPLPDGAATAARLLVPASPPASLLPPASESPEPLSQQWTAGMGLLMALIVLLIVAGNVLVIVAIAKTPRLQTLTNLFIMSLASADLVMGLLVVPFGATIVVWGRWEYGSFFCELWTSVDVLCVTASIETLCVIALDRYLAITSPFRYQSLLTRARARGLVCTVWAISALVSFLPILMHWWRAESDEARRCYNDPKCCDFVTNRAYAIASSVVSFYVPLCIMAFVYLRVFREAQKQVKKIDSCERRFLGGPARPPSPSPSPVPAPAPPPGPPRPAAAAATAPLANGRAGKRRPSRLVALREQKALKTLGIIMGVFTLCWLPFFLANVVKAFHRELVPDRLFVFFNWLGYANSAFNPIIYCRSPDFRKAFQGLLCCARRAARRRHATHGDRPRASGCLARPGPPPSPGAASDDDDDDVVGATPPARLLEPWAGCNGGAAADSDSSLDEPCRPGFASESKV

The target in another assay is β2 adrenergic receptor (Homo sapiens (Human), UniProt P07550). The assay can be described thus: cAMP Gs dynamic HTRF assay, β2 expressing CHO cells. As to conditions: B2-AR. The procedure, abridged:
as §1

[2] abbreviates: read-out: Average pEC50 [Receptor subtype: Endogenous, Cell type: 1321N1] (converted).
Setting [3] is: read-out: Average pEC50 [Receptor subtype: B3-AR, Cell type: CHO-K1] (converted).
[4] abbreviates: CHO-K cells, read-out: Average EC50 [Receptor subtype: B1-AR, Cell type: CHO-K].
Where [5] appears, read: CHO-K1 (HitHunter), read-out: Average pEC50 [Receptor subtype: B2-AR, Cell type: CHO-K1 (HitHunter)] (converted).
The mark [6] stands for this setting: CHO-K cells, read-out: Average EC50 [Receptor subtype: B2-AR, Cell type: CHO-K].
Where [7] appears, read: CHO-K1 (HitHunter), read-out: Average pEC50 [Receptor subtype: B1-AR, Cell type: CHO-K1 (HitHunter)] (converted).
Setting [8] is: read-out: Average EC50 [Receptor subtype: Endogenous, Cell type: 1321N1].
[9] abbreviates: read-out: Average EC50 [Receptor subtype: B3-AR, Cell type: CHO-K1].

β2 adrenergic receptor, sequence (P07550 whole entry, species assumed): as the sequence (P07550 whole entry) above
B3-AR, sequence (P13945 whole entry, species assumed): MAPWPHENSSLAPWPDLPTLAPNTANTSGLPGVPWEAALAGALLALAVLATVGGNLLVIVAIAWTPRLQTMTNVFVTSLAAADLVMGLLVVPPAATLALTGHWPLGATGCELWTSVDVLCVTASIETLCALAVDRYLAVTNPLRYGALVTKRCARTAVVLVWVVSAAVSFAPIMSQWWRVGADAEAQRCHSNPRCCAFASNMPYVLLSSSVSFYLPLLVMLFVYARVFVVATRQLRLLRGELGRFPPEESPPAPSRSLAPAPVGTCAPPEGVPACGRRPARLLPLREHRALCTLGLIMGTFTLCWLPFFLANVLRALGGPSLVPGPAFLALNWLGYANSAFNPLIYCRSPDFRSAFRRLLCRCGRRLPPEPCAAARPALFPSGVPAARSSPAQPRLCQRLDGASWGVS

As for `CC(C)(C)NC[C@H](O)c1cccc(C2CCC2)n1` [Compound 03-161], the EC50 in assay [1] (setting [2]) is under 10 nM; on B3-AR (setting [3]), 100 to 1000 nM; on β1-adrenergic receptor (setting [4]) it was under 10 nM; at β2 adrenergic receptor (setting [5]), under 10 nM; on β2 adrenergic receptor (setting [6]) it was under 10 nM. The “Average pEC50 [Receptor subtype: B1-AR; Cell type: CHO-K1 (HitHunter)]” value on β1-adrenergic receptor (CHO-K1 (HitHunter)) is “A (A > 8)”.
For `CC(C)(C)NC[C@H](O)c1cccc(C(C)(F)F)n1` [Compound 03-169], the EC50 is 100 to 1000 nM in assay [1] (setting [2]); over 1000 nM at B3-AR (setting [3]); 10 to 100 nM at β1-adrenergic receptor (setting [4]); under 10 nM at β2 adrenergic receptor (setting [5]); under 10 nM at β2 adrenergic receptor (setting [6]). Besides, the “Average pEC50 [Receptor subtype: B1-AR; Cell type: CHO-K1 (HitHunter)]” value on β1-adrenergic receptor (CHO-K1 (HitHunter)) is on record as “B (B = 8-7)”.
For `CC1(NC[C@H](O)c2cccc(C(F)(F)F)n2)CCC1` [Compound 03-11], the EC50 was 100 to 1000 nM in assay [1] (setting [2]); over 1000 nM at B3-AR (setting [3]); 10 to 100 nM on β1-adrenergic receptor (setting [7]); 10 to 100 nM at β1-adrenergic receptor (setting [4]); under 10 nM at β2 adrenergic receptor (setting [5]); under 10 nM on β2 adrenergic receptor (setting [6]).
With `Cc1cc([C@@H](O)CNC(C)(C)C)nc(C(F)(F)F)c1` [Compound 03-19], the EC50 in assay [1] (setting [2]) is 100 to 1000 nM; on B3-AR (setting [3]), over 1000 nM; at β1-adrenergic receptor (setting [7]), 100 to 1000 nM; at β1-adrenergic receptor (setting [4]), 100 to 1000 nM; at β2 adrenergic receptor (setting [5]), 10 to 100 nM; at β2 adrenergic receptor (setting [6]), 10 to 100 nM.
Regarding `CCOc1ncccc1[C@@H](O)CNC(C)(C)C` [Compound 03-58], the “Average pEC50 [Receptor subtype: Endogenous; Cell type: 1321N1]” value in assay [1] is given as “B (B = 8-7)”. In addition, the EC50 in assay [1] (setting [8]) was 10 to 100 nM; at B3-AR (setting [9]) it was over 1000 nM; on β1-adrenergic receptor (setting [7]) it was 10 to 100 nM; on β1-adrenergic receptor (setting [4]), 10 to 100 nM; on β2 adrenergic receptor (setting [5]), 10 to 100 nM; on β2 adrenergic receptor (setting [6]), 10 to 100 nM. The “Average pEC50 [Receptor subtype: B3-AR; Cell type: CHO-K1]” value on B3-AR is reported as “D (D < 6)”.
Take `CCOc1cccc([C@@H](O)CNC(C)(C)C)n1` [Compound 03-177]: the EC50 in assay [1] (setting [2]) was under 10 nM; on B3-AR (setting [3]) it was 100 to 1000 nM; on β1-adrenergic receptor (setting [7]), 10 to 100 nM; on β1-adrenergic receptor (setting [4]), 10 to 100 nM; on β2 adrenergic receptor (setting [5]), under 10 nM; on β2 adrenergic receptor (setting [6]), under 10 nM.
As for `CC(C)(C)NC[C@H](O)c1cccc(OC(F)(F)F)n1` [Compound 03-37], the EC50 in assay [1] (setting [2]) was under 10 nM; at B3-AR (setting [3]), 100 to 1000 nM; on β1-adrenergic receptor (setting [7]), 10 to 100 nM; at β1-adrenergic receptor (setting [4]), 10 to 100 nM; on β2 adrenergic receptor (setting [5]), under 10 nM; on β2 adrenergic receptor (setting [6]), under 10 nM.
`CC(C)(C)NC[C@H](O)c1cccc(C(F)F)n1` [Compound 03-44]: in assay [1], the “Average pEC50 [Receptor subtype: Endogenous; Cell type: 1321N1]” value is listed as “C (C = <7-6)”. In addition, the EC50 in assay [1] (setting [8]) is 100 to 1000 nM; at B3-AR (setting [9]) it was over 1000 nM; at β1-adrenergic receptor (setting [7]), 10 to 100 nM; on β1-adrenergic receptor (setting [4]) it was 10 to 100 nM; on β2 adrenergic receptor (setting [5]) it was 10 to 100 nM; on β2 adrenergic receptor (setting [6]), 10 to 100 nM. The “Average pEC50 [Receptor subtype: B3-AR; Cell type: CHO-K1]” value on B3-AR is recorded as “D (D < 6)”.
On to `CNc1cccc([C@@H](O)CNC(C)(C)C)n1` [Compound 03-141], for which the EC50 in assay [1] (setting [2]) is 10 to 100 nM; at B3-AR (setting [3]), over 1000 nM; at β1-adrenergic receptor (setting [7]) it was 10 to 100 nM; on β1-adrenergic receptor (setting [4]), 100 to 1000 nM; on β2 adrenergic receptor (setting [5]), under 10 nM; at β2 adrenergic receptor (setting [6]), under 10 nM.
Consider `CC(C)(C)NC[C@H](O)c1cccc(N2CCCC2)n1` [Compound 03-173], for which the EC50 in assay [1] (setting [2]) was under 10 nM; at B3-AR (setting [3]), over 1000 nM; on β1-adrenergic receptor (setting [7]), 100 to 1000 nM; on β1-adrenergic receptor (setting [4]) it was 100 to 1000 nM; at β2 adrenergic receptor (setting [5]), under 10 nM; on β2 adrenergic receptor (setting [6]) it was under 10 nM.
`CC(C)(C)NC[C@H](O)c1ccc(C(F)(F)F)cn1` [Compound 03-126]: the EC50 in assay [1] (setting [2]) was 10 to 100 nM; at B3-AR (setting [3]) it was 100 to 1000 nM; on β1-adrenergic receptor (setting [7]), 10 to 100 nM; on β1-adrenergic receptor (setting [4]), 10 to 100 nM; at β2 adrenergic receptor (setting [5]), 10 to 100 nM; at β2 adrenergic receptor (setting [6]), 10 to 100 nM.
